This passage reports EC50 results from patent US20230312605A1, “PYRROLO[2,1-F][1,2,4]TRIAZINES AND PREPARATION AND USES THEREOF” (BioSplice Therapeutics, Inc., priority 2021, published 2023).

The target in this assay is recombinant DYRK1A kinase (Homo sapiens (Human), UniProt Q13627). In words: DYRK1A kinase assay (Ser/Thr 18 peptide Z-lyte FRET assay). The class given is biochemical. The note with it: recombinant DYRK1A 0.25 µg/mL, ATP 15 µM, Ser/Thr peptide 18 4 µM, one hour at room temperature; table head prints EC50, method says IC50. In a few lines: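 Z-lyte FRET format: 1 h room-temperature reaction of 15 µM ATP, 4 µM Ser/Thr 18 peptide and 0.25 µg/mL recombinant human DYRK1A, in duplicate over 11 compound concentrations up to 10 µM. IC50 was derived by non-linear regression of percent phosphorylation calculated from coumarin/fluorescein emission ratios.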
On to `Cc1nc2ccc(-c3ccn4nc(NC5CC6(CCN(C)CC6)C5)ncc34)nc2n1CC(F)F` [Compound 1836, 5-(3-(2,2-Difluoroethyl)-2-methyl-3H-imidazo[4,5-b]pyridin-5-yl)-N-(7-methyl-7-azaspiro[3.5]nonan-2-yl)pyrrolo[2,1-f][1,2,4]triazin-2-amine], for which the EC50 is 3 nM. Take `Cc1nc2ccc(-c3ccn4nc(N[C@H]5CC[C@@H](CO)CC5)ncc34)nc2n1CC(F)F` [Compound 1837, (cis-4-((5-(3-(2,2-Difluoroethyl)-2-methyl-3H-imidazo[4,5-b]pyridin-5-yl)pyrrolo[2,1-f][1,2,4]triazin-2-yl)amino)cyclohexyl)methanol]: the EC50 was determined as 6 nM. Next, `Cc1nc2ccc(-c3ccn4nc(N[C@H]5CC[C@@H](OCC(F)F)CC5)ncc34)nc2n1CC(F)F` [Compound 1838]: 6 nM; `Cc1nc2ccc(-c3ccn4nc(N[C@H]5CC[C@@H](OCCO)CC5)ncc34)nc2n1CC(F)F` [Compound 1839, 2-((cis-4-((5-(3-(2,2-difluoroethyl)-2-methyl-3H-imidazo[4,5-b]pyridin-5-yl)pyrrolo[2,1-f][1,2,4]triazin-2-yl)amino)cyclohexyl)oxy)ethan-1-ol]: 4 nM.

For the compound `Cc1nc2ccc(-c3ccn4nc(N[C@H]5CC[C@](C)(O)CC5)ncc34)nc2n1CC(F)F` [Compound 1840, trans-4-((5-(3-(2,2-Difluoroethyl)-2-methyl-3H-imidazo[4,5-b]pyridin-5-yl)pyrrolo[2,1-f][1,2,4]triazin-2-yl)amino)-1-methylcyclohexan-1-ol], the EC50 was found to be 3 nM.

`Cc1nc2ccc(-c3ccn4nc(N[C@H]5CC[C@@H](CN6CCN(C)CC6)CC5)ncc34)nc2n1CC(F)F` [Compound 1841, 5-(3-(2,2-Difluoroethyl)-2-methyl-3H-imidazo[4,5-b]pyridin-5-yl)-N-(cis-4-((4-methylpiperazin-1-yl)methyl)cyclohexyl)pyrrolo[2,1-f][1,2,4]triazin-2-amine]: the concentration for a half-maximal effect (EC50) turned out to be 6 nM.

Regarding `Cc1nc2ccc(-c3ccn4nc(N[C@H]5CC[C@@H](CN6CCOCC6)CC5)ncc34)nc2n1CC(F)F` [Compound 1842, 5-(3-(2,2-difluoroethyl)-2-methyl-3H-imidazo[4,5-b]pyridin-5-yl)-N-(cis-4-(morpholinomethyl)cyclohexyl)pyrrolo[2,1-f][1,2,4]triazin-2-amine], the EC50 worked out at 5 nM. With `CCOC(=O)[C@H]1CC[C@@H](Nc2ncc3c(-c4ccc5nc(C)n(CC(F)F)c5n4)ccn3n2)CC1` [Compound 1843, Ethyl cis-4-((5-(3-(2,2-difluoroethyl)-2-methyl-3H-imidazo[4,5-b]pyridin-5-yl)pyrrolo[2,1-f][1,2,4]triazin-2-yl)amino)cyclohexane-1-carboxylate], the EC50 was 33 nM. For the compound `CC(=O)N[C@H]1CC[C@H](Nc2ncc3c(-c4ccc5nc(C)n(CC(F)F)c5n4)ccn3n2)CC1` [Compound 1844, N-(trans-4-((5-(3-(2,2-Difluoroethyl)-2-methyl-3H-imidazo[4,5-b]pyridin-5-yl)pyrrolo[2,1-f][1,2,4]triazin-2-yl)amino)cyclohexyl)acetamide], the EC50 turned out to be 3 nM.

As to `Cc1nc2ccc(-c3ccn4nc(N[C@H]5CC[C@@H](C(=O)N(C)C)CC5)ncc34)nc2n1CC(F)F` [Compound 1845, cis-4-((5-(3-(2,2-Difluoroethyl)-2-methyl-3H-imidazo[4,5-b]pyridin-5-yl)pyrrolo[2,1-f][1,2,4]triazin-2-yl)amino)-N,N-dimethylcyclohexane-1-carboxamide], the EC50 is 4 nM. Next, `Cc1nc2ccc(-c3ccn4nc(NC5CCC6(CC5)CN(C)C6)ncc34)nc2n1CC(F)F` [Compound 1846, 5-(3-(2,2-Difluoroethyl)-2-methyl-3H-imidazo[4,5-b]pyridin-5-yl)-N-(2-methyl-2-azaspiro[3.5]nonan-7-yl)pyrrolo[2,1-f][1,2,4]triazin-2-amine]: 4 nM; `Cc1nc2ccc(-c3ccn4nc(NC5CCC6(CC5)OCCO6)ncc34)nc2n1CC(F)F` [Compound 1847]: 5 nM. Take `Cc1nc2ccc(-c3ccn4nc(NCC5CN(C)CCO5)ncc34)nc2n1CC(F)F` (stereo not shown) [Compound 1848, 5-(3-(2,2-Difluoroethyl)-2-methyl-3H-imidazo[4,5-b]pyridin-5-yl)-N-((4-methylmorpholin-2-yl)methyl)pyrrolo[2,1-f][1,2,4]triazin-2-amine]: the EC50 came to 5 nM. Consider `Cc1nc2ccc(-c3ccn4nc(NC5CCN(CCF)CC5)ncc34)nc2n1CC(F)F` [Compound 1849], for which the EC50 stood at 7 nM. As to `Cc1nc2ccc(-c3ccn4nc(NC5CCN(CC(F)F)CC5)ncc34)nc2n1CC(F)F` [Compound 1850, 5-(3-(2,2-Difluoroethyl)-2-methyl-3H-imidazo[4,5-b]pyridin-5-yl)-N-(1-(2,2-difluoroethyl)piperidin-4-yl)pyrrolo[2,1-f][1,2,4]triazin-2-amine], the EC50 was determined as 8 nM. For the compound `Cc1nc2ccc(-c3ccn4nc(NC5CCN(CCC(F)(F)F)CC5)ncc34)nc2n1CC(F)F` [Compound 1851], the EC50 turned out to be 11 nM. For `Cc1nc2ccc(-c3ccn4nc(NC5CCN(CCO)CC5)ncc34)nc2n1CC(F)F` [Compound 1852, 2-(4-((5-(3-(2,2-Difluoroethyl)-2-methyl-3H-imidazo[4,5-b]pyridin-5-yl)pyrrolo[2,1-f][1,2,4]triazin-2-yl)amino)piperidin-1-yl)ethan-1-ol], the EC50 amounted to 9 nM.

`Cc1nc2ccc(-c3ccn4nc(N[C@@H]5CCN(C)C[C@@H]5F)ncc34)nc2n1CC(F)F` [Compound 1853, 5-(3-(2,2-Difluoroethyl)-2-methyl-3H-imidazo[4,5-b]pyridin-5-yl)-N-((3S,4R)-3-fluoro-1-methylpiperidin-4-yl)pyrrolo[2,1-f][1,2,4]triazin-2-amine]: the EC50 came to 5 nM. Turning to `Cc1nc2ccc(-c3ccn4nc(N[C@@H]5CCN(C)C[C@H]5F)ncc34)nc2n1CC(F)F` [Compound 1854], the EC50 was determined as 8 nM. Next, `Cc1nc2ccc(-c3ccn4nc(N[C@H]5CCN(C)C[C@@H]5F)ncc34)nc2n1CC(F)F` [Compound 1855, 5-(3-(2,2-Difluoroethyl)-2-methyl-3H-imidazo[4,5-b]pyridin-5-yl)-N-((3S,4S)-3-fluoro-1-methylpiperidin-4-yl)pyrrolo[2,1-f][1,2,4]triazin-2-amine]: 6 nM; `Cc1nc2ccc(-c3ccn4nc(N[C@H]5CCN(C)C[C@H]5F)ncc34)nc2n1CC(F)F` [Compound 1856]: 6 nM.

Consider `CC(=O)N1CCC(Nc2ncc3c(-c4ccc5nc(C)n(CC(F)F)c5n4)ccn3n2)CC1` [Compound 1857, 1-(4-((5-(3-(2,2-Difluoroethyl)-2-methyl-3H-imidazo[4,5-b]pyridin-5-yl)pyrrolo[2,1-f][1,2,4]triazin-2-yl)amino)piperidin-1-yl)ethan-1-one], for which the EC50 came to 3 nM.

On to `CCC(=O)N1CCC(Nc2ncc3c(-c4ccc5nc(C)n(CC(F)F)c5n4)ccn3n2)CC1` [Compound 1858, 1-(4-((5-(3-(2,2-Difluoroethyl)-2-methyl-3H-imidazo[4,5-b]pyridin-5-yl)pyrrolo[2,1-f][1,2,4]triazin-2-yl)amino)piperidin-1-yl)propan-1-one], for which the EC50 worked out at 7 nM. For the compound `Cc1nc2ccc(-c3ccn4nc(NC5CCN(C(=O)C(C)C)CC5)ncc34)nc2n1CC(F)F` [Compound 1859, 1-(4-((5-(3-(2,2-Difluoroethyl)-2-methyl-3H-imidazo[4,5-b]pyridin-5-yl)pyrrolo[2,1-f][1,2,4]triazin-2-yl)amino)piperidin-1-yl)-2-methylpropan-1-one], the EC50 stood at 8 nM. Next, `Cc1nc2ccc(-c3ccn4nc(NC5CCN(C(=O)C6CC6)CC5)ncc34)nc2n1CC(F)F` [Compound 1860]: 5 nM; `Cc1nc2ccc(-c3ccn4nc(NC5CCN(S(C)(=O)=O)CC5)ncc34)nc2n1CC(F)F` [Compound 1861, 5-(3-(2,2-Difluoroethyl)-2-methyl-3H-imidazo[4,5-b]pyridin-5-yl)-N-(1-(methylsulfonyl)piperidin-4-yl)pyrrolo[2,1-f][1,2,4]triazin-2-amine]: 7 nM.

As for `Cc1nc2ccc(-c3ccn4nc(NC5CCN(C6COC6)CC5)ncc34)nc2n1CC(F)F` [Compound 1862, 5-(3-(2,2-Difluoroethyl)-2-methyl-3H-imidazo[4,5-b]pyridin-5-yl)-N-(1-(oxetan-3-yl)piperidin-4-yl)pyrrolo[2,1-f][1,2,4]triazin-2-amine], the EC50 worked out at 6 nM.

For the compound `Cc1nc2ccc(-c3ccn4nc(N[C@@H]5CCCOC5)ncc34)nc2n1CC(F)F` [Compound 1863, (R)-5-(3-(2,2-Difluoroethyl)-2-methyl-3H-imidazo[4,5-b]pyridin-5-yl)-N-(tetrahydro-2H-pyran-3-yl)pyrrolo[2,1-f][1,2,4]triazin-2-amine], the EC50 worked out at 8 nM. In the case of `Cc1nc2ccc(-c3ccn4nc(N[C@H]5CCCOC5)ncc34)nc2n1CC(F)F` [Compound 1864, (S)-5-(3-(2,2-Difluoroethyl)-2-methyl-3H-imidazo[4,5-b]pyridin-5-yl)-N-(tetrahydro-2H-pyran-3-yl)pyrrolo[2,1-f][1,2,4]triazin-2-amine], the EC50 came to 3 nM.

In the case of `Cc1nc2ccc(-c3ccn4nc(N[C@@H]5CCOC[C@@H]5O)ncc34)nc2n1CC(F)F` [Compound 1865, (3R,4R)-4-((5-(3-(2,2-Difluoroethyl)-2-methyl-3H-imidazo[4,5-b]pyridin-5-yl)pyrrolo[2,1-f][1,2,4]triazin-2-yl)amino)tetrahydro-2H-pyran-3-ol], the EC50 stood at 20 nM. With `Cc1nc2ccc(-c3ccn4nc(N[C@@H]5CCOC[C@H]5O)ncc34)nc2n1CC(F)F` [Compound 1866, (3S,4R)-4-((5-(3-(2,2-Difluoroethyl)-2-methyl-3H-imidazo[4,5-b]pyridin-5-yl)pyrrolo[2,1-f][1,2,4]triazin-2-yl)amino)tetrahydro-2H-pyran-3-ol] the figure was 33 nM.
